# Assay results as given in patent US6440978B2, “Therapeutic agent for dermatitis” (Nippon Zoki Pharmaceutical Co., Ltd., priority 2000, dated 2002).
# Tests used:
# [1] = target: T1, phosphodiesterase type V (PDE V) (Homo sapiens, UniProt O76074); experiment: Inhibitory action against phosphodiesterase type V; format: biochemical; conditions: 100 μM; PDE V from human platelets
# T1 construct: phosphodiesterase type V (PDE V) partially purified from human platelets; from tissue; host or cells: human platelets
# Description: The inhibitory action of the compounds of the present invention against activities of various phosphodiesterase (PDE) isozymes were investigated using the conventional method. Each of the inhibitory action of the compounds of the present invention on the activities of phosphodiesterase type II (PDE II) partially purified from human platelets, phosphodiesterase type III […] partially purified from human platelets, phosphodiesterase type IV (PDE IV) partially purified from human U937 promonocytic leukemia cells and phosphodiesterase type V (PDE V) partially purified from human platelets were measured.
# [2] = tested on: antigen-induced flare-up reaction in a mouse; experiment: Suppressive action against antigen-induced flare-up reaction in a mouse; format: in vivo, BALB/c female mice; conditions: 3% ointment
# Procedure: (§1) Seven week old BALB/c female (SPF) mice of were selected as subjects. According to a method of Tanaka, et al. (Allergy, 46, pages 42-48(1997)), egg white albumin (final concentration: 2 μg/mL) and aluminum hydroxide gel (final concentration: 10 mg/mL) were suspended in physiological saline and 0.5 mL of the suspension was administered to effect intraperitoneal sensitization on the first day of the test. On the 14th day of the test, an additional sensitization was carried out under the same conditions. Further, on the 28th day of the test, 25 μL of egg albumin (a 20 μg/mL solution in physiological saline) was intradermally administered to the right ear of a mouse to induce a swelling reaction.
# This swelling reaction reached its peak at 4 hours after the challenge by the antigen. Even after 24 to 48 hours, a significant swelling reaction was noted as compared with the control in which antigen was merely challenged (not sensitized). […] On the contrary, the swelling from 24 to 48 hours after the challenge is thought to be the so-called delayed-type swelling reaction accompanied by infiltration of eosinophils, neutrophils and lymphocytes. In addition, a flare-up reaction having a peak at 24 hours after the challenge appeared on the ear of the antigen-induced site. Like swelling, flare-up is an important symptom of inflammation. Although the mechanism of the flare-up reaction is ambiguous, it may be a flare-up reaction of a delayed type in view of the time course of its expression. As such, this model animal in which the inflammation of both immediate and delayed types are induced is appropriate as a model animal for atopic dermatitis. In the following experiment, the effectiveness of the therapeutic agent for dermatitis according to the present invention was tested using the said model animal.
# Each of a vehicle (control) and an agent for the test (the therapeutic agent for dermatitis according to the present invention or a positive control) was applied to the antigen-induced site (right auricle) of a mouse to induce a swelling reaction in accordance with Example 2 at 2 hours before and 4 hours after the challenge. The right ear was observed by naked eye and the degree of flare-up was scored according to the following standard:
# 1: in such a degree that a flare-up was confirmed, the color is clear red or pale red and the size was small
# 2: between score 3 and score 1
# 3: color of the flare-up was clearly red and the size of the flare-up was big
# [3] = tested on: eosinophil infiltration into the antigen-induced ear of a mouse; experiment: Suppressive action against eosinophil infiltration into the antigen-induced ear of a mouse (eosinophil peroxidase activity); format: in vivo, BALB/c female mice; conditions: 3% ointment; ear tissue 24 hours after challenge; compared with positive control
# Procedure: as §1
# The degree of eosinophil infiltration into the ear of a mouse was determined by measuring eosinophil peroxidase activity in a skin tissue homogenate and using the measurement as an index. […] This homogenate was centrifuged at 20,000 rpm for 20 minutes (using KR-20000T, Kubota) and the peroxidase activity in the supernatant fluid was measured using o-phenylenediamine dihydrochloride (Sigma) as a substrate. By measuring the absorbance of radiation having a wavelength of 492 nm, the resulting reaction curve was substantially linear relative to the dosage of the test drug and the degree of eosinophil infiltration was compared by defining the eosinophil infiltration of the control as 100%.
structure (smiles),measurement,setting,value
"Nc1ccc2c(=O)n(Cc3ccccc3)c(=O)n(-c3ccccc3)c2n1 [Compound 1, 7-amino-3-benzyl-1,2,3,4-tetrahydro-1-phenylpyrido[2,3-d]pyrimidin-2,4-dione]",suppression activity against PDE V,[1],15%
same,Suppression Rate of flare-up score at 4 hr after Challenge,[2]; 4 hr after challenge,(0.0%)
same,Flare-up Score at 4 hr after Challenge,"[2]; 4 hr after challenge, score 0-3",0.8 ± 0
same,Suppression Rate of flare-up score at 24 hr after Challenge,[2]; 24 hr after challenge,(32.0%)
same,Flare-up Score at 24 hr after Challenge,"[2]; 24 hr after challenge, score 0-3",1.7 ± 0.2
same,eosinophil infiltration suppressing action,[3],same degree as that of the steroid preparation of the positive control
